These results are taken from patent US11098056B2, “UDP glycosyltransferase inhibitors and methods of use” (GENZYME CORPORATION, priority 2018, dated 2021).

The structures appear in SMILES notation. Bounds are passed on as bounds.

The test addresses T1, UGT8 (Homo sapiens, UniProt Q16880).
T1 construct: host or cells: OE19 cells
T1 sequence (Q16880 21-541): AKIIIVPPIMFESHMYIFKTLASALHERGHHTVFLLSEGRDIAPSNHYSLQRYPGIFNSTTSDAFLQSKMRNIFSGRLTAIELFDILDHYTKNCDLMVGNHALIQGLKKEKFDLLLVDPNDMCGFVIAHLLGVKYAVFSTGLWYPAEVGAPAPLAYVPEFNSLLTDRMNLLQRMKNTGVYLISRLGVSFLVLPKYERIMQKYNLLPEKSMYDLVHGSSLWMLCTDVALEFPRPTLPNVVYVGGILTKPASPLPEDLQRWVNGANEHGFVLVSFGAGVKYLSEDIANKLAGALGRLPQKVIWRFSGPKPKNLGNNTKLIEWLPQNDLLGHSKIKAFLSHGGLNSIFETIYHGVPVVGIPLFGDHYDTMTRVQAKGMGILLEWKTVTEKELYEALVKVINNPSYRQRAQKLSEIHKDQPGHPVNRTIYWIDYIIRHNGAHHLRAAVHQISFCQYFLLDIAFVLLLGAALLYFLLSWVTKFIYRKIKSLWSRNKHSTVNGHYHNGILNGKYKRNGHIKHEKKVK
Briefly: In vitro sulfatide (SFT) synthesis inhibition in OE19 cells, LC-MS/MS readout. In kind it is cell-based. Conditions: 72 hr, sulfatide by LC-MS/MS, read-out: Potency range (IC50, In-vitro SFT). The procedure:
For medium throughput screening, library compounds were dispensed into CellBIND 384 well plates to a final concentration of 10 μM. OE19 cells (Sigma) were grown in to 70-90% confluency in RPMI 1640+L-glutamine and […]; were trypsinized to achieve suspension and were aliquoted at 2,500 cells/well, total well volume 50 μl. Plates were incubated 72 hr at 37° C. in 5% CO2; supernatant was removed and plates were dried, heat-sealed and stored at −20° C. until analysis.
For IC50 determinations, the same procedure was followed except that test compounds were added to the plate as dose-downs in triplicate to yield concentration response curves.
Mass Spectrometer Analysis of Sulfatide (SFT):
Assay plates were thawed and 85 μl mobile phase B (5 mM ammonium formate^+0.2% formic acid in 50:50 methanol:acetonitrile). Fifteen μl 20 ng/ml C17 SFT in mobile phase B was added as an internal standard.
SFT was analyzed using an Applied Biosystems API-4000 triple quad mass spectrometer interfaced to a Thermo Scientific Multiplex system (LX-4) equipped with four pumps. Chromatography of OE19 cell samples or 2B5-mouse cells treated with compounds was performed using a Waters Acquity UPLC BEH C8 2.1×50 mm column with 1.7 um particle size. The chromatography was performed using the following mobile phases. Mobile phase A (MPA): 0.2% formic acid and 5 mM ammonium formate in deionized water; MPB: see above. The LC method was run in isocratic mode for 4 sequentially running columns using 95% MPB and 5% MPA with flow rate of 1 ml/min and a column temperature of 60° C.
The Triple quad mass spectrometer was run in Negative Ionization mode monitoring the following MRM transitions and using the following parameters:
Electrospray voltage was […], and source temperature was 550° C.
For `CNC(=O)c1csc2c(C(F)(F)F)cc(N3CCN(CC(C)OCC4CC4)CC3)nc12` (racemic) [Example 39, (+/−)-5-(4-(2-(Cyclopropylmethoxy)propyl)piperazin-1-yl)-N-methyl-7-(trifluoromethyl)thieno[3,2-b]pyridine-3-carboxamide], the half-maximal inhibitory concentration (IC50) fell in the range of 100 to 1000 nM.
Regarding `CNC(=O)c1csc2c(C(F)(F)F)cc(O[C@@H]3CCN(C(=O)OC(C)(C)C)[C@@H](C)C3)nc12` (racemic) [Example 368, (+/−)-tert-Butyl trans-2-methyl-4-((3-(methylcarbamoyl)-7-(trifluoromethyl)thieno[3,2-b]pyridin-5-yl)oxy)piperidine-1-carboxylate], the IC50 fell in the range of 100 to 1000 nM.
The result for `CNC(=O)c1csc2c(C(F)(F)F)cc(O[C@@H]3CCN(C(=O)OCCOC(F)(F)F)[C@@H](C)C3)nc12` (racemic) [Example 369, (+/−)-trans-2-(Trifluoromethoxy)ethyl-2-methyl-4-((3-(methylcarbamoyl)-7-(trifluoromethyl)thieno[3,2-b]pyridin-5-yl)oxy)piperidine-1-carboxylate] reads less than 100 nM; that for `CNC(=O)c1csc2c(C(F)(F)F)cc(O[C@@H]3CCN(C(=O)OC(C)(C)C)[C@H](C)C3)nc12` (racemic) [Example 370, (+/−)-tert-Butyl cis-2-methyl-4-((3-(methylcarbamoyl)-7-(trifluoromethyl)thieno[3,2-b]pyridin-5-yl)oxy)piperidine-1-carboxylate], less than 100 nM.
The result for `CNC(=O)c1csc2c(C(F)(F)F)cc(O[C@@H]3CCN(C(=O)OCCOC(F)(F)F)[C@H](C)C3)nc12` (racemic) [Example 371, (+/−)-cis-2-(Trifluoromethoxy)ethyl-2-methyl-4-((3-(methylcarbamoyl)-7-(trifluoromethyl)thieno[3,2-b]pyridin-5-yl)oxy)piperidine-1-carboxylate] reads less than 100 nM; that for `CNC(=O)c1csc2c(C(F)(F)F)c(C)c(O[C@@H]3CCN(C(=O)OC(C)(C)C)C[C@@H]3F)nc12` (racemic) [Example 387, (+/−)-tert-Butyl cis-3-fluoro-4-((6-methyl-3-(methylcarbamoyl)-7-(trifluoromethyl)thieno[3,2-b]pyridin-5-yl)oxy)piperidine-1-carboxylate], less than 100 nM; that for `CNC(=O)c1csc2c(C(F)(F)F)cc(N3CC[C@H](OC(=O)N[C@@H](C)COC(F)(F)F)[C@@H](F)C3)nc12` (racemic) [Example 418], less than 100 nM.
As to `CC(C)NC(=O)O[C@H]1CCN(c2cc(C(F)(F)F)c3scc(C(=O)N4CCC4)c3n2)C[C@@H]1F` (racemic) [Example 441, (+/−)-trans-1-(3-(Azetidine-1-carbonyl)-7-(trifluoromethyl)thieno[3,2-b]pyridin-5-yl)-3-fluoropiperidin-4-yl isopropylcarbamate], the IC50 was less than 100 nM.
As to `CNC(=O)c1csc2c(C(F)(F)F)cc(N3CC[C@H](OC(=O)N(C(C)C)C(C)C)[C@@H](F)C3)nc12` (racemic) [Example 488, (+/−)-trans-3-Fluoro-1-(3-(methylcarbamoyl)-7-(trifluoromethyl)thieno[3,2-b]pyridin-5-yl)piperidin-4-yl diisopropylcarbamate], the IC50 was less than 100 nM.
Turning to `CNC(=O)c1csc2c(C(F)(F)F)cc(N3CC[C@H](OC(=O)NC(C)C)[C@@H](F)C3)nc12` (racemic) [Example 490, (+/−)-tran-3-Fluoro-1-(3-(methylcarbamoyl)-7-(trifluoromethyl)thieno[3,2-b]pyridin-5-yl)piperidin-4-yl isopropylcarbamate], the IC50 is less than 100 nM.
In the case of `CNC(=O)c1csc2c(C(F)(F)F)cc(N3CC[C@H](OC(=O)NC4CC4)[C@@H](F)C3)nc12` (racemic) [Example 492, (+/−)-trans-3-Fluoro-1-(3-(methylcarbamoyl)-7-(trifluoromethyl)thieno[3,2-b]pyridin-5-yl)piperidin-4-yl cyclopropylcarbamate], the IC50 is less than 100 nM.
The result for `CNC(=O)c1csc2c(C(F)(F)F)cc(O[C@@H]3CN(C(=O)OC(C)(C)C)C[C@@H]3F)nc12` (racemic) [Example 609, tert-Butyl (+/−)-cis-3-fluoro-4-((3-(methylcarbamoyl)-7-(trifluoromethyl)thieno[3,2-b]pyridin-5-yl)oxy)pyrrolidine-1-carboxylate] reads less than 100 nM; that for `CNC(=O)c1csc2c(C(F)(F)F)cc(O[C@H]3CN(C(=O)OCC4CC4)C[C@H]3F)nc12` (racemic) [Example 610, Cyclopropylmethyl (+/−)-cis-3-fluoro-4-((3-(methylcarbamoyl)-7-(trifluoromethyl)thieno[3,2-b]pyridin-5-yl)oxy)pyrrolidine-1-carboxylate], less than 100 nM; that for `CNC(=O)c1csc2c(C(F)(F)F)cc(O[C@H]3CN(C(=O)OCCOC(F)(F)F)C[C@H]3F)nc12` (racemic) [Example 611, 2-(Trifluoromethoxy)ethyl (+/−)-cis-3-fluoro-4-((3-(methylcarbamoyl)-7-(trifluoromethyl)thieno[3,2-b]pyridin-5-yl)oxy)pyrrolidine-1-carboxylate], less than 100 nM.
Turning to `CNC(=O)c1csc2c(C(F)(F)F)cc(OC3CC4COCC(C3)N4C(=O)OC(C)(C)C)nc12` (racemic) [Example 628, tert-Butyl (+/−)-endo7-((3-(methylcarbamoyl)-7-(trifluoromethyl)thieno[3,2-b]pyridin-5-yl)oxy)-3-oxa-9-azabicyclo[3.3.1]nonane-9-carboxylate], the IC50 was 100 to 1000 nM.
The result for `CNC(=O)c1csc2c(C(F)(F)F)cc(OC3CC4COCC(C3)N4C(=O)OCCOC(F)(F)F)nc12` (racemic) [Example 629, 2-(Trifluoromethoxy)ethyl (+/−)-endo7-((3-(methylcarbamoyl)-7-(trifluoromethyl)thieno[3,2-b]pyridin-5-yl)oxy)-3-oxa-9-azabicyclo[3.3.]nonane-9-carboxylate] reads less than 100 nM; that for `CNC(=O)c1csc2c(C(F)(F)F)cc(N3CCC(OC(=O)NC(C)CF)CC3)nc12` (racemic) [Example 671, [1-[3-(Methylcarbamoyl)-7-(trifluoromethyl)thieno[3,2-b]pyridin-5-yl]-4-piperidyl] N-(2-fluoro-1-methyl-ethyl)carbamate], less than 100 nM.
Consider `CNC(=O)c1csc2c(C(F)(F)F)cc(O[C@H]3C[C@@H](OC(=O)N[C@@H](C)COC(F)(F)F)C3)nc12` (racemic) [Example 833, (+/−)-cis-(1S,3R)-3-((3-(Methylcarbamoyl)-7-(trifluoromethyl)thieno[3,2-b]pyridin-5-yl)oxy)cyclobutyl ((S)-1-(trifluoromethoxy)propan-2-yl)carbamate], for which the IC50 was less than 100 nM.
As for `COC(=O)c1csc2c(C(F)(F)F)cc(N3CCN(CC(=O)NC(C)C)CC3)nc12` [Example 10, Methyl 5-(4-(2-(isopropylamino)-2-oxoethyl)piperazin-1-yl)-7-(trifluoromethyl)thieno[3,2-b]pyridine-3-carboxylate], the IC50 was less than 100 nM.
As for `CCNC(=O)CN1CCN(c2cc(C(F)(F)F)c3scc(C(=O)NC)c3n2)CC1` [Example 25, 5-(4-(2-(Ethylamino)-2-oxoethyl)piperazin-1-yl)-N-methyl-7-(trifluoromethyl)thieno[3,2-b]pyridine-3-carboxamide], the IC50 is 100 to 1000 nM.
`CNC(=O)c1csc2c(C(F)(F)F)cc(N3CCN(C(=O)COC(C)C)CC3)nc12` [Example 44, 5-(4-(2-Isopropoxyacetyl)piperazin-1-yl)-N-methyl-7-(trifluoromethyl)thieno[3,2-b]pyridine-3-carboxamide]: the IC50 fell in the range of 100 to 1000 nM.
`CNC(=O)c1csc2c(C(F)(F)F)c(C)c(N3CCN(CC(=O)NC(C)C)CC3)nc12` [Example 47, 5-(4-(2-(Isopropylamino)-2-oxoethyl)piperazin-1-yl)-N,6-dimethyl-7-(trifluoromethyl)thieno[3,2-b]pyridine-3-carboxamide]: the concentration for half-maximal inhibition (IC50) lay within 100 to 1000 nM.
The result for `CNC(=O)c1csc2c(C)cc(N3CCN(CC(=O)NC(C)C)CC3)nc12` [Example 48, 5-(4-(2-(Isopropylamino)-2-oxoethyl)piperazin-1-yl)-N,7-dimethylthieno[3,2-b]pyridine-3-carboxamide] reads 100 to 1000 nM.
